Assay results: publication PMC6958523, “Metabolism and Pharmacokinetic Study of the Boron-Containing Prodrug of Belinostat (ZL277), a Pan HDAC Inhibitor with Enhanced Bioavailability” (Pharmaceuticals, 2019)

Columns and labels:
[1] = Pharmacokinetics and in vivo metabolites of ZL277 in mice plasma after single IP dose; settings: for metabolite detected in Plasma: mice after IP injection of ZL277
Procedure: (§1) Four to six-week-old female ovariectomized Nu/Nu mice (Genotype: Homozygous genotype, homozygous for Foxn1), purchased from Charles River Laboratories (Wilmington, MA, USA), were used for the study of ZL277 metabolites in vivo. Six mice in each group were given ethanol-dissolved ZL277 and belinostat, at a single dose of 10 mg/kg by intraperitoneal injection (IP). After IP administration, venous blood samples were collected at 1, 3, 6, and 24 h time points. Urine and fecal samples were collected for the time duration of 0–8 h, 8–24 h, 24–32 h, and 32–48 h after IP administration.
(§2) Plasma, urine, or feces samples were processed following protocols published previously. These samples were injected on the Hypersil GOLD C18 column (1.8 µm, 2.1 × 50 mm) with UHPLC ultimate 3000 from Dionex, coupled with a […] mass spectrometer, to quantitate the concentration of the main metabolites of ZL277. The 10 µL samples were run with the gradient starting at 0.3 mL/min from 2% mobile phase B (acetonitrile with 0.05% formic acid) and 98% mobile phase A (water with 0.05% formic acid) until 1 min, up to 30% B at 3 min, 45% B at 4.8 min, 100% B at 5.5 min, then back to 30% B until equilibration. SRM mode was used to detect ZL277 (pos 535.21→134.97), ZL277-B(OH)2-452 (neg 451.13→256.04), ZL277-424-OH (neg 423.07→317.04), belinostat (neg 317.02→245.05) or (pos 319.08→93.08), belinostat amide (pos 303.08→91.05), belinostat acid (neg 302.05→92.05), methylated belinostat (pos 333.09→239.92). The product scan in MS/MS mode was used to detect belinostat–sulfate (neg 397.02→97.02), and belinostat–glucoronate (pos 495.09→319.27). The […] was set at spray voltage at 3200 V, vaporizer temperature at 365 °C, sheath gas pressure at 33 psi, auxiliary gas pressure at 10 psi, and capillary temperature at 350 °C. Additional experimental details can be found in Figures S1 and S2, and Tables S1–S8.
Sample preparation protocols:
(1) Plasma sample preparation: Plasma samples (100 μL) were extracted with methanol.
Internal standard (10 μL 0.5 ng/μL trans-tamoxifen-13C2, 15N in methanol), methanol
(0.5 mL) were added to each plasma sample. The mixtures were stored at −20 °C
overnight. Samples were sonicated for 10 min and then centrifuged on a Heraeus Fresco

[2] = Drug and metabolite concentrations in MCF-7 xenograft breast tumor tissues of treated mice; assay type: in vivo; settings: breast tumor xenograft in mice treated with ZL277
Procedure: Four to six week old female ovariectomized Nu/Nu mice, implanted subcutaneously with 17β-Estradiol pellets, were injected with MCF-7 cells harvested in the exponential growth phase to grow the breast tumors. On day 15 after tumor formation, the mice were treated with vehicle, belinostat, at 10 mg/kg/day, or ZL277 at 10 mg/kg/day, by subcutaneous injection. On the last day of the study, the tumors were collected and frozen for analysis.
as §2

[3] = Metabolites of ZL277 in urine and fecal samples from treated mice; assay type: in vivo; settings: for metabolite detected in Urine: mice after IP injection of ZL277; for relative abundance among metabolites in feces / relative abundance among metabolites in urine: mice treated with ZL277
Procedure: as §1, §2
Sample preparation protocols: […]
(2) Feces sample preparation: The collected feces samples were weighed on an OHAUS Explorer balance. The internal standard of trans-tamoxifen-13C2,15N (0.5 ng/μL in methanol) was added to the feces samples based on 10 ng/g feces according to the weight of the feces collected. Methanol was added at the ratio of 4 mL/g feces. Then the samples were homogenized with a Power Gen 125 homogenizer (Fisher Scientific) and stored at - 20 °C overnight. After sonicating for 30 min, the samples were centrifuged with a Heraeus Megafuge16R centrifuge at 3000 RPM. The supernatant was dried at room temperature and resuspended with corresponding amount of methanol (200 μL methanol/g feces) for injection on the TSQ Vantage instrument.
(3) Urine sample preparation: Urine samples were thawed at room temperature and vortexed. 200 μL of the sample was transferred to a 1.5 mL Eppendorf microcentrifuge tube followed by adding 200 μL methanol and 10 μL of the 0.5 ng/μL trans-tamoxifen-13C2, 15N in methanol solution. After Vortaxing and centrifuging, the top supernatant was injected on the UPLC-TSQ Vantage mass spectrometer instrument for analysis.

[4] = In vitro sulfation of ZL277 in liver cytosol with PAPS; assay type: in vitro ADME; settings: rat liver cytosol, 30 min
Procedure: The incubation of ZL277 with liver cytosols followed a similar procedure to the study of sulfation of ZB716 [23]. After termination of incubation with 300 µL MeOH, the final mixture was centrifuged. The supernatant was analyzed on the UHPLC-Q-Exactive instrument.
(§3) The samples from in vitro incubations were run on a Hypersil GOLD C18 column (1.8 µm, 2.1 × 50 mm) with UHPLC ultimate 3000 from Dionex coupled with one Q-Exactive HR mass spectrometer (Thermo Scientific, Waltham, MA, USA). The gradient started at 20% mobile phase B (Acetonitrile with 0.05% formic acid) and 80% mobile phase A (water with 0.05% formic acid), increased to 100% B in 4.5 min at 0.3 mL/min, stayed for 5 min, then came back to 30% B until equilibration. PRM mode or full scan mode was used to identify the interested metabolites.

MCF-7 tumor xenograft = test system: MCF-7 tumor xenograft; design: method as in PMID 29456804; settings: mice; cited from earlier work
[5] = In vitro metabolism of ZL277 in liver S9 fraction with NADPH; assay type: in vitro ADME; settings: rat liver S9, NADPH, 1 h
Procedure: The incubation of ZL277 with liver S9 fractions followed the procedures of incubation with liver microsomes, as described previously. The pre-incubation solution consisted of 30 µL of potassium phosphate buffer (pH 7.4; 10X), 241.5 µL water, 15 µL of NADPH solution A, 3 µL of NADPH solution B, 7.5 µL rat liver S9 fractions. After incubation at 37 °C for 5 min in a 1.5 mL microcentrifuge vial, 3 µL of 10 mM ZL277 was added, mixed, and incubated at 37 °C for another 60 min in the incubator. Then, 300 µL MeOH was added to terminate the reaction. After centrifugation, the supernatant was analyzed on the UHPLC, coupled to a Q-Exactive high-resolution mass spectrometer.
as §3

MDA-MB-231 = test system: MDA-MB-231; design: method as in PMID 29456804; settings: cited from earlier work
MCF-7 = test system: MCF-7; design: method as in PMID 29456804; settings: cited from earlier work

SMILES | metabolite detected in Plasma [1] | metabolite detected in Tumor [2] | metabolite detected in Urine [3] | relative abundance among metabolites in feces [3] | relative abundance among metabolites in urine [3] | other results
NC(=O)/C=C/c1cccc(S(=O)(=O)Nc2ccccc2)c1 [Belinostat amide, belinostat amide] | detected | found | detected | – | – | –
O=C(/C=C/c1cccc(S(=O)(=O)Nc2ccccc2)c1)NOCc1ccc(OS(=O)(=O)O)cc1 [ZL277-OH-424-sufate] | – | – | – | – | – | sulfate conjugate found after incubation of ZL277 [4]: detected
O=C(/C=C/c1cccc(S(=O)(=O)Nc2ccccc2)c1)NO [Belinostat, belinostat] | detected | found | detected | major metabolites | major components | effect on growth of MCF-7 tumor xenograft (MCF-7 tumor xenograft): only inhibited tumor growth
O=C(O)/C=C/c1cccc(S(=O)(=O)Nc2ccccc2)c1 [Belinostat acid, belinostat acid] | detected | found | detected | dominantly | dominant components | –
O=C(/C=C/c1cccc(S(=O)(=O)Nc2ccccc2)c1)NOS(=O)(=O)O [Belinostat–sulfate] | – | – | – | – | – | sulfate conjugate found after incubation of ZL277 [4]: No peak
CONC(=O)/C=C/c1cccc(S(=O)(=O)Nc2ccccc2)c1 [Methylated belinostat, methylated belinostat] | detected | found | detected | – | – | –
CC1(C)OB(c2ccc(CONC(=O)/C=C/c3cccc(S(=O)(=O)Nc4ccccc4)c3)cc2)OC1(C)C [ZL277] | – | – | – | – | – | bioavailability compared to belinostat ([1]; mice, 10 mg/kg IP): superior; metabolite found after incubation of ZL277 with liver S9 fraction [5]: not found; antiproliferative activity compared with belinostat (MDA-MB-231): slightly weaker; antiproliferative activity compared with belinostat (MCF-7): slightly weaker; effect on growth of MCF-7 tumor xenograft (MCF-7 tumor xenograft): caused tumor regression

More lines, main results first:

metabolite detected in Plasma [1] | metabolite detected in Tumor [2] | metabolite detected in Urine [3] | relative abundance among metabolites in feces [3] | relative abundance among metabolites in urine [3] | SMILES | other results
– | – | – | major metabolites | major components | O=C(/C=C/c1cccc(S(=O)(=O)Nc2ccccc2)c1)NOCc1ccc(O)cc1 [ZL277-OH-424] | metabolite found after incubation of ZL277 with liver S9 fraction [5]: major oxidative metabolite
– | – | – | major metabolites | major components | O=C(/C=C/c1cccc(S(=O)(=O)Nc2ccccc2)c1)NOCc1ccc(B(O)O)cc1 [ZL277-B(OH)2-452] | relative abundance among drug-related forms in plasma ([1]; mice treated with ZL277): predominant form
